Reference: patent US4312867A, “Antibacterial compounds, processes for their preparation and compositions containing them” (Beecham Group Limited, priority 1979, dated 1982)
≈ marks a conversion by molar mass, not a printed value. Like-named read-outs stand apart in the source and are kept apart here.

Key:
Bord bronchiseptica B09 = test: MIC veterinary bacteria (Table 2), serial dilution in agar; type: cell-based; details: diagnostic sensitivity test agar
Strep pyogenes A 64/848 = test: MIC human bacteria (Table 1), serial dilution in nutrient agar; type: cell-based; details: nutrient agar with 5% chocolated horse blood
Staph aureus Oxford [1] = test: as above; type: cell-based; details: Staphylococcus aureus, nutrient agar with 5% chocolated horse blood
E. coli NCTC 10418 [2] = test: as above; type: cell-based; details: Escherichia coli, NCTC10418; E. coli NCTC 10418; nutrient agar with 5% chocolated horse blood; read-out: MIC
Sarcina lutea 8340 = test: as above; type: cell-based; details: Micrococcus luteus, nutrient agar with 5% chocolated horse blood, read-out: MIC
[3] = tested on: Pasteurella multocida 1633; test: as above; type: cell-based
Bacillus subtilis 6633 = test: as above; type: cell-based; details: nutrient agar with 5% chocolated horse blood
Staph aureus W2827 = test: as above; type: cell-based; details: Staphylococcus aureus, nutrient agar with 5% chocolated horse blood
[4] = tested on: Strep suis (group D) SPS11; test: MIC veterinary bacteria (Table 2), serial dilution in agar; type: cell-based; details: diagnostic sensitivity test agar
[5] = tested on: Staph aureus 152 (pen. sens); test: as above; type: cell-based; details: Staphylococcus aureus, diagnostic sensitivity test agar
Staph aureus Russell = test: MIC human bacteria (Table 1), serial dilution in nutrient agar; type: cell-based; details: Staphylococcus aureus, nutrient agar with 5% chocolated horse blood
[6] = Serum binding by ultrafiltration of porcine serum; type: in vitro ADME; details: pig, 8 mcg/ml, microbiological assay, read-out: % bound to pig serum (converted)
Description: Serum binding was assessed by ultrafiltration of porcine serum containing compounds at 8 mcg/ml, and through an Amicon CF50A ultrafiltration cone. Separation of ultrafiltrate was achieved by centrifugation. Unbound concentrations of compound were measured in the ultrafiltrate by microbiological assay (B. subtilis ATCC 6633) against standards prepared in saline.

P. mirabilis 889 = test: MIC human bacteria (Table 1), serial dilution in nutrient agar; type: cell-based; details: Proteus mirabilis
[7] = tested on: Erysipelothrix rhusiopathiae NCTC 8163; test: MIC veterinary bacteria (Table 2), serial dilution in agar; type: cell-based; details: NCTC8163; Erysipelothrix rhusiopathiae NCTC 8163; diagnostic sensitivity test agar; read-out: MIC
Strep dysgalaciae SPD1 = test: as above; type: cell-based; details: diagnostic sensitivity test agar
Strep pyogenes C 2761 = test: MIC human bacteria (Table 1), serial dilution in nutrient agar; type: cell-based; details: nutrient agar with 5% chocolated horse blood
Past multocida PA1 = test: MIC veterinary bacteria (Table 2), serial dilution in agar; type: cell-based; details: diagnostic sensitivity test agar
[8] = tested on: Corynebacterium pyogenes CY1; test: as above; type: cell-based; details: Trueperella pyogenes, diagnostic sensitivity test agar
S. typhimurium S18 = test: as above; type: cell-based; details: Salmonella enterica, diagnostic sensitivity test agar
E. coli E1 = test: as above; type: cell-based; details: Escherichia coli, diagnostic sensitivity test agar
E. coli ESS = test: MIC human bacteria (Table 1), serial dilution in nutrient agar; type: cell-based; details: Escherichia coli
Staph aureus Oxford [9] = test: MIC veterinary bacteria (Table 2), serial dilution in agar; type: cell-based; details: Staphylococcus aureus; Staph aureus Oxford; diagnostic sensitivity test agar; read-out: MIC
S. dublin S7 = test: as above; type: cell-based; details: Salmonella enterica, diagnostic sensitivity test agar
[10] = tested on: Staph aureus B4 (pen. resis); test: as above; type: cell-based; details: Staphylococcus aureus; Staph aureus B4 (pen. resis); diagnostic sensitivity test agar; read-out: MIC
Past multocida PA2 = test: as above; type: cell-based; details: diagnostic sensitivity test agar
E. coli NCTC 10418 [11] = test: as above; type: cell-based; details: Escherichia coli, NCTC10418; E. coli NCTC 10418; diagnostic sensitivity test agar; read-out: MIC
Ps. aeruginosa 10662 = test: MIC human bacteria (Table 1), serial dilution in nutrient agar; type: cell-based; details: Pseudomonas aeruginosa, nutrient agar with 5% chocolated horse blood
Bord bronchiseptica B08 = test: MIC veterinary bacteria (Table 2), serial dilution in agar; type: cell-based; details: diagnostic sensitivity test agar
Strep uberis SPU1 = test: as above; type: cell-based; details: diagnostic sensitivity test agar
Strep pneumoniae CN33 = test: MIC human bacteria (Table 1), serial dilution in nutrient agar; type: cell-based; details: nutrient agar with 5% chocolated horse blood
Strep agalactiae SPA1 = test: MIC veterinary bacteria (Table 2), serial dilution in agar; type: cell-based; details: diagnostic sensitivity test agar
K. aerogenes A = test: MIC human bacteria (Table 1), serial dilution in nutrient agar; type: cell-based; details: Klebsiella aerogenes, nutrient agar with 5% chocolated horse blood
[12] = tested on: Haemophilus influenzae Q1; test: as above; type: cell-based
[13] = tested on: Corynebacterium xerosis 9755; test: as above; type: cell-based; details: nutrient agar with 5% chocolated horse blood, read-out: MIC
Strep faecalis I = test: as above; type: cell-based; details: nutrient agar with 5% chocolated horse blood
Strep pyogenes B 2788 = test: as above; type: cell-based; details: nutrient agar with 5% chocolated horse blood
[14] = tested on: Neisseria catarrhalis 1502; test: as above; type: cell-based; details: nutrient agar with 5% chocolated horse blood
[15] = tested on: Haemophilus influenzae Wy21; test: as above; type: cell-based; details: Haemophilus influenzae Wy21; nutrient agar with 5% chocolated horse blood; read-out: MIC

Row | Structure (SMILES) | MIC (Bord bronchiseptica B09) [µg/mL] | MIC (Strep pyogenes A 64/848) [µg/mL] | MIC (Staph aureus Oxford [1]) [µg/mL] | MIC (E. coli NCTC 10418 [2]) [µg/mL] | MIC (Sarcina lutea 8340) [µg/mL] | MIC (Bacillus subtilis 6633) [µg/mL] | MIC (Staph aureus W2827) [µg/mL] | MIC [4] [µg/mL] | MIC [5] [µg/mL] | MIC (Staph aureus Russell) [µg/mL] | fraction unbound [6] | MIC [7] [µg/mL] | MIC (Strep dysgalaciae SPD1) [µg/mL] | MIC (Strep pyogenes C 2761) [µg/mL] | MIC (Past multocida PA1) [µg/mL] | MIC (S. typhimurium S18) [µg/mL] | MIC (E. coli E1) [µg/mL] | MIC (Staph aureus Oxford [9]) [µg/mL] | MIC (S. dublin S7) [µg/mL] | MIC [10] [µg/mL] | other results
1 | C/C(=C\C(=O)OCCCCCCS(N)(=O)=O)CC1OCC(CC2OC2C(C)C(C)O)C(O)C1O (stereo not shown) [Example 2, 6-Sulphamoylhexyl monate A] | 10 (≈ 19.7 µM) | 0.5 (≈ 0.985 µM) | 5 (≈ 9.85 µM) | > 100 | > 100 | 0.5 (≈ 0.985 µM) | 5 (≈ 9.85 µM) | 2.5 (≈ 4.92 µM) | 1.25 (≈ 2.46 µM) | 5 (≈ 9.85 µM) | 0.287 | 20 (≈ 39.4 µM) | 0.625 (≈ 1.23 µM) | 1 (≈ 1.97 µM) | 0.312 (≈ 0.615 µM) | > 80 | > 80 | 2.5 (≈ 4.92 µM) | > 80 | 2.5 (≈ 4.92 µM) | MIC ([3]; Pasteurella multocida 1633, nutrient agar with 5% chocolated horse blood, read-out: MIC): 2.5 µg/mL (≈ 4.92 µM); MIC (P. mirabilis 889; 889): 50 µg/mL (≈ 98.5 µM); MIC [8]: 10 µg/mL (≈ 19.7 µM); MIC (E. coli ESS): 0.5 µg/mL (≈ 0.985 µM); MIC (Past multocida PA2): 0.039 µg/mL (≈ 0.0768 µM); MIC (E. coli NCTC 10418 [11]): > 80 µg/mL; MIC (Ps. aeruginosa 10662): > 100 µg/mL; MIC (Bord bronchiseptica B08): 20 µg/mL (≈ 39.4 µM); MIC (Strep uberis SPU1): 0.625 µg/mL (≈ 1.23 µM); MIC (Strep pneumoniae CN33): 0.2 µg/mL (≈ 0.394 µM); MIC (Strep agalactiae SPA1): 1.25 µg/mL (≈ 2.46 µM); MIC (K. aerogenes A): > 100 µg/mL; MIC ([12]; Haemophilus influenzae, Q1): 0.1 µg/mL (≈ 0.197 µM); MIC [13]: > 100 µg/mL; MIC (Strep faecalis I): > 100 µg/mL; MIC (Strep pyogenes B 2788): 1 µg/mL (≈ 1.97 µM)
2 | C/C(=C\C(=O)OCCCCCCCCS(N)(=O)=O)CC1OCC(CC2OC2C(C)C(C)O)C(O)C1O (stereo not shown) [Example 3, 8-Sulphamoyloctyl monate A] | 40 (≈ 74.7 µM) | 0.5 (≈ 0.933 µM) | 1 (≈ 1.87 µM) | > 100 | > 100 | 0.2 (≈ 0.373 µM) | 1 (≈ 1.87 µM) | 20 (≈ 37.3 µM) | 0.625 (≈ 1.17 µM) | 1 (≈ 1.87 µM) | 0.035 | 10 (≈ 18.7 µM) | 2.5 (≈ 4.67 µM) | 1 (≈ 1.87 µM) | 1.25 (≈ 2.33 µM) | > 80 | > 80 | 0.625 (≈ 1.17 µM) | > 80 | 0.625 (≈ 1.17 µM) | MIC ([3]; Pasteurella multocida, 1633): 1 µg/mL (≈ 1.87 µM); MIC (P. mirabilis 889; P. mirabilis 889, nutrient agar with 5% chocolated horse blood, read-out: MIC): > 100 µg/mL; MIC (E. coli ESS; E. coli ESS, nutrient agar with 5% chocolated horse blood, read-out: MIC): 0.5 µg/mL (≈ 0.933 µM); MIC [14]: 1 µg/mL (≈ 1.87 µM); MIC (Past multocida PA2): 0.156 µg/mL (≈ 0.291 µM); MIC (E. coli NCTC 10418 [11]): > 80 µg/mL; MIC (Ps. aeruginosa 10662): > 100 µg/mL; MIC (Bord bronchiseptica B08): 80 µg/mL (≈ 149 µM); MIC (Strep uberis SPU1): 1.25 µg/mL (≈ 2.33 µM); MIC (Strep pneumoniae CN33): 0.5 µg/mL (≈ 0.933 µM); MIC (Strep agalactiae SPA1): 2.5 µg/mL (≈ 4.67 µM); MIC (K. aerogenes A): > 100 µg/mL; MIC ([12]; Haemophilus influenzae Q1, nutrient agar with 5% chocolated horse blood, read-out: MIC): 0.2 µg/mL (≈ 0.373 µM); MIC [15]: 0.2 µg/mL (≈ 0.373 µM); MIC [13]: > 100 µg/mL; MIC (Strep faecalis I): > 100 µg/mL; MIC (Strep pyogenes B 2788): 1 µg/mL (≈ 1.87 µM)
